From patent US8138176B2, “Imidazo compounds” (Novartis AG, priority 2006, dated 2012)

Tested on: plasma aldosterone and corticosterone levels
Experiment: Suppression of plasma aldosterone and corticosterone levels in ACTH-stimulated rats
Type: in vivo, Wistar rats
Details: rat plasma, 4 mg/kg p.o., 2 h after dosing vs 1 h before dosing
Experimental: The aldosterone- and corticosterone-suppressing activity of herein described compounds may be assessed with the following in vivo protocol.
Adult male Wistar rats weighing between 250 and 350 grams are kept under the usual 12 hour light and 12 hour dark conditions at a temperature of 23° C.±2° C. On the first day of the experiment, the animals receive a subcutaneous injection of a depot ACTH product in a dose of 1.0 mg/kg weight (SYNACTHEN-Depot, Novartis, Basel, CH) 16 hours prior to the administration of a test compound. […] An alternative method to stimulate aldosterone secretion consists in subjecting rats to a low salt diet for 48 hours and applying the diuretic furosemide at 10 mg/kg by subcutaneous or intraperitoneal administration 16 hours, respectively 2 hours prior to the start of the experiment. On the second day of the experiment, the animals are divided into test groups of 5 animals and subjected to a first bleed 1 hour prior to the administration of test compound. Subsequently, and 16 hours after the injection of the ACTH product, the animals receive either vehicle or test compound dissolved in vehicle in a variable dose range from 0.02 to 20 mg/kg by oral gavage. The animals are bled two more times from the vena subclavia under isoflurane anaesthesia 2 and 6 hours after dosing. The blood is collected in heparin-treated tubes. The plasma samples are obtained by centrifugation and stored at −20° C. An alternative method to bleed animals time-dependently consists in using animals that are chronically carotid catheterized which allows the periodical sampling of up to 0.2 ml of blood using an AccuSampler (DiLab Europe, Lund, Sweden). The blood sampling with the AccuSampler may occur 1 hour prior to the administration of a test compound and 2, 4, 6, 8, 12, 16 and 24 hours thereafter. The blood samples are anticoagulated with heparin and centrifuged. The aldosterone and corticosterone concentrations of the plasma samples can be determined with a radioimmunoassay as described above for the in vitro test systems.
The selective suppression of plasma steroid levels as for instance aldosterone in comparison to corticosterone may serve as a measure for in vivo bioavailability and pharmacodynamic enzyme inhibitory activity of the herein described compounds. The evaluation of the data may occur relative to the application of vehicle or quantitatively by determination of the area under the curve (AUC).

Compound | Aldosterone levels (% change at 2 h) [% change] | Corticosterone levels (% change at 2 h) [% change]
Fc1ccc(C2COCc3cncn32)cc1 (stereo not shown) [Example 14, 5-(4-Fluorophenyl)-5,6-dihydro-8H-imidazo[5,1-c][1,4]oxazine] | −58 | −7
CC(=O)c1ccc(C2COCc3cncn32)cc1 (stereo not shown) [Example 16] | −67 | −9
